Test results from patent US12304912B2, “Fused bicyclic RAF inhibitors and methods for use thereof” (Jazz Pharmaceuticals Ireland Limited, priority 2020, dated 2025).

Experiments:
[1] = Plasma protein binding assay, mouse plasma (mPPB); type: in vitro ADME; conditions: 5 μM, equilibrium dialysis 4 hours at 37° C.
Outline: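 Equilibrium dialysis of 5 μM compound in previously frozen human or mouse plasma against phosphate buffer, 4 h at 37 °C. Both chambers quantified by LC-MS/MS; % free = (1−((PC−PF)/PC))×100.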

[2] = Microsomal stability assay, mouse liver microsomes (MLM); type: in vitro ADME; conditions: 0.5 mg/mL protein, 1 μM substrate, 37° C.
Outline: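 Half-life and CLint come from the ln(% remaining)–time slope, with remaining compound quantified by LC-MS/MS after ice-cold solvent quench of timed samples. Incubations used 1 μM test compound and 0.5 mg·mL^−1 human or mouse liver microsomal protein at 37° C.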

[3] = system: constitutive ERK phosphorylation in HCT-116 cells; assay: HCT-116 AlphaLISA SureFire pERK1/2 cellular assay; type: cell-based, human; conditions: Homo sapiens, HCT-116; HCT116 cells, 2 hr, Abs; read-out: pERK HCT116 (2 hr) Abs pIC50 (converted)
Outline: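 Cells seeded overnight (30,000/well for 2 h, 15,000/well for 24 h), then dosed in 1% FBS medium with a 10-point series from 1 μM top, 1/3 log steps, for 2 or 24 h at 37 °C. Lysates read by AlphaLISA for Thr202/Tyr204 pERK1/2; absolute IC50 versus DMSO control.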

SMILES | mPPB (% free) [1] | microsomal CLint at 1 μM [2] | IC50 [3] | MLM (CLint) [2]
O=C(CN1CC(O)C1)Nc1cc(Oc2ccc3c(c2)CC(c2nc(-c4ccccc4)c[nH]2)CO3)ccn1 (stereo not drawn) [Compound 153] | 0.6 % free | 92.9 µL/min/mg | 200 nM | –
O=C(Cn1cncn1)Nc1cc(Oc2ccc3c(c2)CC(c2nc(-c4ccccc4)c[nH]2)CO3)ccn1 (stereo not drawn) [Compound 154] | 0.7 % free | 95.2 µL/min/mg | 28.2 nM | –
O=C(Nc1cc(Oc2ccc3c(c2)CC(c2nc(-c4ccc(F)cc4)c[nH]2)CO3)ccn1)C1CC1 (stereo not drawn) [Compound 155, N-[4-[3-[4-(4-fluorophenyl)-1H-imidazol-2-yl]chroman-6-yl]oxy-2-pyridyl]cyclopropanecarboxamide] | 0.1 % free | – | 60.3 nM | 277 µL/min/mg
CC(=O)Nc1cc(Oc2ccc3c(c2)CC(c2nc(-c4ccccc4)c[nH]2)CO3)ccn1 (stereo not drawn) [Compound 156, N-[4-[3-(4-phenyl-1H-imidazol-2-yl)chroman-6-yl]oxy-2-pyridyl]acetamide] | 0.4 % free | 152 µL/min/mg | 42.7 nM | –
CC1CC1C(=O)Nc1cc(Oc2ccc3c(c2)CC(c2nc(-c4ccccc4)c[nH]2)CO3)ccn1 (stereo not drawn) [Compound 157] | <0.1 % free | – | 112 nM | 277 µL/min/mg
O=C1CCc2c(Oc3ccc4c(c3)CN(c3nc5cc(C(F)(F)F)ccc5[nH]3)CC4)ccnc2N1 [Compound 160] | <0.1 % free | 4.5 µL/min/mg | 135 nM | –
